Test results: ChEMBL document CHEMBL6078675, “Discovery of Ureido-Containing Alteropeptilides and Intramolecular Cyclized Alteramides in Pseudoalteromonas flavipulchra S16 by Promoter Engineering of Cryptic Biosynthetic Gene Clusters” (J Nat Prod, 2024)
The source made the active and inactive calls. The rule behind the calls is not given here. Numbered stars: 1 amine (or outer) side, 2 acyl side, 3 side chain; on linkers, the order of the positions; unused ones are H or OH. Peptide text beside a SMILES is read from it. Trp(6-Br) = N[C@@H](Cc1c[nH]c2cc(Br)ccc12)C(=O)O; CO = O=C([*:1])[*:2]

Tests used:
[1] = test system: A549; assay: Cytotoxicity against human A549 cells assessed as inhibition of cell proliferation at 20 uM incubated for 24 hrs by CCK8 assay; assay type: functional, cell-based
[2] = test system: A673; assay: Cytotoxicity against human A673 cells assessed as inhibition of cell proliferation at 20 uM incubated for 24 hrs by CCK8 assay; assay type: functional, cell-based
[3] = test system: TE-1; assay: Cytotoxicity against human TE-1 cells assessed as inhibition of cell proliferation at 20 uM incubated for 24 hrs by CCK8 assay; assay type: functional, cell-based
[4] = test system: SF-126; assay: Cytotoxicity against human SF-126 cells assessed as inhibition of cell proliferation at 20 uM incubated for 24 hrs by CCK8 assay; assay type: functional, cell-based
[5] = test system: Staphylococcus aureus; assay: Antibacterial activity against Staphylococcus aureus ATCC 29213 at 1 mM at 20 uM incubated for 16 hrs by disk diffusion method; assay type: functional, organism-based
[6] = test system: HOS; assay: Cytotoxicity against human HOS cells assessed as inhibition of cell proliferation at 20 uM incubated for 24 hrs by CCK8 assay; assay type: functional, cell-based
[7] = test system: A-375; assay: Cytotoxicity against human A-375 cells assessed as inhibition of cell proliferation at 20 uM incubated for 24 hrs by CCK8 assay; assay type: functional, cell-based
[8] = test system: 786-0; assay: Cytotoxicity against human 786-0 cells assessed as inhibition of cell proliferation at 20 uM incubated for 24 hrs by CCK8 assay; assay type: functional, cell-based
[9] = test system: MKN-45; assay: Cytotoxicity against human MKN-45 cells assessed as inhibition of cell proliferation at 20 uM incubated for 24 hrs by CCK8 assay; assay type: functional, cell-based
[10] = test system: HCT-116; assay: Cytotoxicity against human HCT-116 cells assessed as inhibition of cell proliferation at 20 uM incubated for 24 hrs by CCK8 assay; assay type: functional, cell-based
[11] = test system: L02; assay: Cytotoxicity against human L02 cells assessed as inhibition of cell proliferation at 20 uM incubated for 24 hrs by CCK8 assay; assay type: toxicity, cell-based; conditions: l02, 24 h
[12] = test system: RAW264.7; assay: Cytotoxicity against mouse RAW264.7 cells assessed as inhibition of cell proliferation at 20 uM incubated for 24 hrs by CCK8 assay; assay type: functional, cell-based
[13] = test system: K562; assay: Cytotoxicity against human K562 cells assessed as inhibition of cell proliferation at 20 uM incubated for 24 hrs by CCK8 assay; assay type: functional, cell-based
[14] = test system: HepG2; assay: Cytotoxicity against human HepG2 cells assessed as inhibition of cell proliferation at 20 uM incubated for 24 hrs by CCK8 assay; assay type: functional, cell-based
[15] = test system: CAL-62; assay: Cytotoxicity against human CAL-62 cells assessed as inhibition of cell proliferation at 20 uM incubated for 24 hrs by CCK8 assay; assay type: functional, cell-based
[16] = test system: RAW264.7; assay: Anti-inflammatory activity against mouse RAW264.7 cells at 20 uM pretreated for 30 mins followed by LPS treatment for 24 hrs by Griess assay; assay type: functional, cell-based; conditions: time 24.5 hrs
[17] = test system: HeLa; assay: Cytotoxicity against human HeLa cells assessed as inhibition of cell proliferation at 20 uM incubated for 24 hrs by CCK8 assay; assay type: functional, cell-based
[18] = test system: DU-145; assay: Cytotoxicity against human DU-145 cells assessed as inhibition of cell proliferation at 20 uM incubated for 24 hrs by CCK8 assay; assay type: functional, cell-based
[19] = test system: GBC-SD; assay: Cytotoxicity against human GBC-SD cells assessed as inhibition of cell proliferation at 20 uM incubated for 24 hrs by CCK8 assay; assay type: functional, cell-based
[20] = test system: 5637; assay: Cytotoxicity against human 5637 cells assessed as inhibition of cell proliferation at 20 uM incubated for 24 hrs by CCK8 assay; assay type: functional, cell-based
[21] = test system: Escherichia coli; assay: Antibacterial activity against Escherichia coli CGMCC 44102 at 1 mM at 20 uM incubated for 16 hrs by disk diffusion method; assay type: functional, organism-based
[22] = test system: PaTu 8988t; assay: Cytotoxicity against human PaTu 8988t cells assessed as inhibition of cell proliferation at 20 uM incubated for 24 hrs by CCK8 assay; assay type: functional, cell-based
[23] = test system: MCF7; assay: Cytotoxicity against human MCF7 cells assessed as inhibition of cell proliferation at 20 uM incubated for 24 hrs by CCK8 assay; assay type: functional, cell-based
[24] = test system: Bacillus subtilis; assay: Antibacterial activity against Bacillus subtilis ATCC 6633 at 1 mM at 20 uM incubated for 16 hrs by disk diffusion method; assay type: functional, organism-based

Row | SMILES | Activity [1] | Activity [2] | Activity [3] | Activity [4] | Activity [5] | Activity [6] | Activity [7] | Activity [8] | Activity [9] | Activity [10] | Activity [11] | Activity [12] | Activity [13] | Activity [14] | Activity [15] | Activity [16] | Activity [17] | Activity [18] | Activity [19] | Activity [20] | other results
1 | COC(=O)[C@@H](NC(=O)[C@H](Cc1c[nH]c2ccccc12)NC(=O)[C@H](Cc1c[nH]c2ccccc12)NC(=O)[C@@H](NC(=O)N[C@@H](Cc1c[nH]c2cc(Br)ccc12)C(=O)O)[C@@H](C)O)C(C)C ({Trp(6-Br)-CO}-TWWV-OMe) | inactive | inactive | inactive | inactive | inactive | inactive | inactive | inactive | inactive | inactive | Non-toxic | inactive | inactive | inactive | inactive | inactive | inactive | inactive | inactive | inactive | Activity [21]: inactive; Activity [22]: inactive; Activity [23]: inactive; Activity [24]: inactive
2 | COC(=O)[C@@H](NC(=O)[C@H](Cc1c[nH]c2ccccc12)NC(=O)[C@H](Cc1c[nH]c2ccccc12)NC(=O)[C@@H](NC(=O)N[C@@H](Cc1c[nH]c2ccccc12)C(=O)O)[C@@H](C)O)C(C)C ({Trp-CO}-TWWV-OMe) | inactive | inactive | inactive | inactive | inactive | inactive | inactive | inactive | inactive | inactive | Non-toxic | inactive | inactive | inactive | inactive | inactive | inactive | inactive | inactive | inactive | Activity [21]: inactive; Activity [22]: inactive; Activity [23]: inactive; Activity [24]: inactive
